# Test results as given in US8815828B2, “Therapeutic combinations for use in neoplasia” (University of Florida Research Foundation, Inc., priority 2008, dated 2014).
# pIC50: −log10 of the molar value. Like-named read-outs stand apart in the source and are kept apart here.
# How the values were obtained:
# T47D breast cancer cells = assay: Sulforhodamine B (SRB) colorimetric cytotoxicity assay, T47D; format: cell-based, human; details: for pIC50: read-out: IC50 (cytotoxicity), agent alone
# Experimental: Data are the mean±SE of three different estimations.
# The developed color was measured at 564 nm.
# MCF7 breast cancer cells = assay: Sulforhodamine B (SRB) colorimetric cytotoxicity assay, MCF7; details: for pIC50: read-out: IC50 (cytotoxicity), agent alone
# Experimental: After 48 hours, cells were harvested and processed for cytotoxicity determination by clonogenic assay. Data presented are the mean±SE of three different estimations.
# The IC50 (the drug concentration needed to prevent cell proliferation by 50%) of TMZ was determined using a sulforhodamine B (SRB) colorimetric assay. This assay relies on the ability of SRB to bind the protein components of cells that have been fixed to tissue culture plates by trichloroacetic acid (TCA) (Vachai V, Kirtikara K. Sulforhodamine B colorimetric assay for cytotoxicity screening. Nat. Proto. 3: 1122-1116, 2006). MCF7 and T47D cells were seeded in 96-well plates at a density of 500 cells per well. After 24 hours, while the cells were in the log phase of cell growth, the cells were treated with different concentrations of TMZ (1-1000 μM) for 48 hours. […] The cells were subsequently fixed with 10% (w/v) of tricholoroacetic acid, washed with double distilled water, and stained with 0.4% SRB. Cells were then repeatedly washed with 1% (v/v) of acetic acid to remove the unbound dye. The protein bound dye was dissolved in 10 mM Tris-base solution (pH 10.5). The developed color was measured at 564 nm. The percentage of cell survival as a function of drug concentration was then plotted to determine the IC50 value.
# [1] = tested on: T47D and MCF7 human breast cancer cell lines; assay: Cytotoxicity by clonogenic assay (FIG. 3 legend), T47D and MCF7 stated jointly; format: cell-based; details: one value for both, read-out: IC50, agent alone
# [2] = tested on: MDA-MB468 and MDA-MB-231 human breast cancer cell lines; assay: Cytotoxicity by clonogenic assay (FIG. 4 legend), MDA-MB468 and MDA-MB-231 stated jointly; format: cell-based; details: MDA-MB468 and MDA-MB-231 cell lines, one value for both; read-out: IC50, agent alone
# Experimental: After 48 hours, drugs were withdrawn and allowed to grow in fresh medium for determination of cytotoxicity by clonogenic assay. Data presented are the mean±SE of three different estimations. […] Data presented are the mean+/−SE of three different estimations.
# [3] = tested on: MDA-MB-468 breast cancer cells; assay: Sulforhodamine B (SRB) colorimetric cytotoxicity assay, MDA-MB-468; details: for pIC50: read-out: IC50 (cytotoxicity), agent alone
# [4] = tested on: MDA-MB-231 breast cancer cells; assay: Sulforhodamine B (SRB) colorimetric cytotoxicity assay, MDA-MB-231; details: for pIC50: read-out: IC50 (cytotoxicity), agent alone
# Pol-β = Pol-β (Homo sapiens, UniProt P06746); assay: In vitro base excision repair (BER) assay with 32P-U-DNA substrate; format: biochemical; details: dose-dependent manner (FIG. 2B)
# Source text: The reaction conditions are described below. […] Data are representative of three different experiments.
# An assay was developed that permits in vitro analysis of BER as described in FIG. 2A.
# [5] = tested on: MCF7, T47D, MDA-MB-231 and MDA-MB-468 human breast cancer cell lines; assay: Clonogenic assay (Example 5, FIG. 8), four breast cancer cell lines stated jointly; format: cell-based; details: one value for all cell lines of FIG. 8, read-out: IC50, agent alone
# Experimental: (§1) After 48 hours, drugs were withdrawn and allowed to grow in fresh medium for determination of cytotoxicity by clonogenic assay. The data presented are the mean±SE of three different estimations.
# (§2) To test this hypothesis, the IC50 of TMZ in four human breast cancer cell lines was determined using a clonogenic assay (Vachai et al., Nat. Proto. 3: 1122-1116, 2006). The cell lines used were MCF7, T47D (both ER/PR/HER2-positive), MDA-MB-231 and MDA-MB-468 (both triple-negative).
# MCF7 cells = assay: Clonogenic assay (Example 5, FIG. 8), MCF7; format: cell-based; details: Homo sapiens, 48 hours, then fresh medium, read-out: IC50 of TMZ alone or in the named combination
# Experimental: as §1, §2
# T47D cells = assay: Clonogenic assay (Example 5, FIG. 8), T47D; format: cell-based; details: Homo sapiens, 48 hours, then fresh medium, read-out: IC50 of TMZ alone or in the named combination
# Experimental: as §1, §2
# MDA-MB-468 cells = assay: Clonogenic assay (Example 5, FIG. 8), MDA-MB-468; format: cell-based; details: Homo sapiens, 48 hours, then fresh medium, read-out: IC50 of TMZ alone or in the named combination
# Experimental: as §1, §2
# MDA-MB-231 cells = assay: Clonogenic assay (Example 5, FIG. 8), MDA-MB-231; format: cell-based; details: Homo sapiens, 48 hours, then fresh medium, read-out: IC50 of TMZ alone or in the named combination
# Experimental: as §1, §2
smiles,measurement,setting,value
"Nc1nc(OCc2ccccc2)c2nc[nH]c2n1 [BG, O^6-benzylguanine]",pIC50,"T47D breast cancer cells; T47D cells, 48 hours",~3.83
same,pIC50,"MCF7 breast cancer cells; MCF7 cells, 48 hours",~4.04
same,pIC50,[1],~4.12
same,pIC50,[2],~4.12
same,pIC50,"[3]; MDA-MB-468 cells, 48 hours",~4.00
same,pIC50,"[4]; MDA-MB-231 cells, 48 hours",~4.11
"Nc1cc(I)n([C@H]2C[C@H](O)[C@@H](COP(=O)(O)O)O2)c(=O)n1 [NSC-124854, 5′-cytidylic acid, 2′-deoxy-6-iodo-(9CI)]",strand-displacement synthesis,"Pol-β; 32P-U-DNA substrate, in the presence of Fen-1",blocked
same,Pol-β-mediated 1-nt incorporation,Pol-β; 32P-U-DNA substrate,blocked
same,complete repair of 32P-U-DNA by the SN-BER pathway,Pol-β; with DNA ligase I,blocked
same,complete repair of 32P-U-DNA by the LP-BER pathway,Pol-β; with Fen-1 and DNA ligase I,blocked
"Cc1cc(S(=O)(=O)Nc2n[nH]c(Nc3ccc(Cl)cc3)n2)c(S)cc1Cl [NSC-666715, Benzosulfonamide, 4-chloro-N-[5-[(4-chlorophenyl)amino]1H-1,2,4-triazol-3-yl]-2-mercapto-5-methyl-(9Cl)]",pIC50,[1],~4.00
same,pIC50,[2],~4.00
same,pIC50,[5],4.00
"Cn1nnc2c(C(N)=O)ncn2c1=O [TMZ, Temozolomide]",pIC50,"T47D breast cancer cells; Homo sapiens, T47D, 48 h",3.52
same,reduction of the IC50 of TMZ,"T47D breast cancer cells; T47D cells, TMZ with BG (2.5 μM)",about 4 fold
same,reduction of the IC50 of TMZ,"T47D breast cancer cells; T47D cells, TMZ with NSC-666715 (15 μM)",about 1.1 fold
same,reduction of the IC50 of TMZ,"T47D breast cancer cells; T47D cells, TMZ with both BG (2.5 μM) and NSC-666715 (15 μM)",about 8 fold
same,pIC50,"MCF7 breast cancer cells; Homo sapiens, MCF7, 48 h",3.52
same,reduction of the IC50 of TMZ,"MCF7 breast cancer cells; MCF7 cells, TMZ with BG (2.5 μM)",about 4 fold
same,reduction of the IC50 of TMZ,"MCF7 breast cancer cells; MCF7 cells, TMZ with NSC-666715 (15 μM)",about 1.5 fold
same,reduction of the IC50 of TMZ,"MCF7 breast cancer cells; MCF7 cells, TMZ with both BG (2.5 μM) and NSC-666715 (15 μM)",about 7 fold
same,reduction in the IC50 of TMZ,"MCF7 breast cancer cells; NSC-666715 and O6-benzylguanine in combination with temozolomide, cell line not stated at this place (figure matches MCF7)",7 fold
same,pIC50,MCF7 cells,3.48
same,pIC50,T47D cells,3.48
same,pIC50,MDA-MB-468 cells,3.53
same,pIC50,MDA-MB-231 cells,3.48
same,pIC50,"[3]; Homo sapiens, MDA-MB-468, 48 h",3.50
same,reduction of the IC50 of TMZ,"[3]; MDA-MB-468 cells, TMZ with BG (2.5 μM)",about 6 fold
same,reduction of the IC50 of TMZ,"[3]; MDA-MB-468 cells, TMZ with NSC-666715 (15 μM)",about 0.1 fold
same,reduction of the IC50 of TMZ,"[3]; MDA-MB-468 cells, TMZ with both BG (2.5 μM) and NSC-666715 (15 μM)",about 15 fold
same,pIC50,"[4]; Homo sapiens, MDA-MB-231, 48 h",3.46
same,reduction of the IC50 of TMZ,"[4]; MDA-MB-231 cells, TMZ with BG (2.5 μM)",about 2.8 fold
same,reduction of the IC50 of TMZ,"[4]; MDA-MB-231 cells, TMZ with NSC-666715 (15 μM)",about 1.5 fold
same,reduction of the IC50 of TMZ,"[4]; MDA-MB-231 cells, TMZ with both BG (2.5 μM) and NSC-666715 (15 μM)",about 6.6 fold
"COc1cc(/C=C/C(=O)CC(=O)/C=C/c2ccc(O)c(OC)c2)ccc1O [curcumin, (1E,6E)-1,7-bis(4-hydroxy-3-methoxy-phenyl)hepta-1,6-diene-3,5-dione]",pIC50,[5]; Homo sapiens,5.30
